{"source": "patent US10842785B2", "about": "“PIM kinase inhibitors in combination with RNA splicing modulators/inhibitors for treatment of cancers” (UNIVERSITY OF MARYLAND, BALTIMORE COUNTY, priority 2016, dated 2020)", "format_in_all_cases": "cell-based", "key": {"MOLM16 cells [1]": {"system": "MOLM16 cells", "experiment": "MTT assay (number of live cells), MOLM16 cells, single inhibitors and combination, Compusyn CI", "conditions": "48 hours", "protocol": "(§1) General experimental procedure: 10,000 (MOLM16) or 20,000 (EOL1) cells were seeded per well in 96-well plates. After culturing overnight, AZD1208 and/or Pladienolide B/SRPIN340 were added to wells in quadruplicates at 5 different concentrations. Different ratios between AZD1208 and Pladienolide B were tried in MOLM16 and EOL1 cells. At 48 hours the MTT metabolism indicative of number of live cells was measured by MTT assay (Promega, Cat: G4000). The resulting values were used to evaluate the Fa (fraction affected) values, which were plugged into the Compusyn software to calculate the combination indices (CI values) at ED50, ED75, ED90 and ED95 (ED—Effective dose of combination).\nThese values of drug dose and effect (fraction of cells affected by the treatment—FA values) were input into the Compusyn software to estimate the interaction between the two drugs."}, "CHAC1, NFYA and Cog5": {"system": "CHAC1, NFYA and Cog5", "experiment": "RT-PCR for splice variants of CHAC1, NFYA and Cog5 in MOLM16 cells", "conditions": "MOLM16, 1 μM, 6 hrs", "description": "(§2) Control=DMSO treated. […] Arrow indicate bands that change after AZD1208 treatment.\n(§3) A few targets from the microarray data were chosen, that being, ones that were affected by PIM kinase inhibition. The procedure was manual curation of data, followed by reference seq analysis of splice variants to determine avalibilty of sequence information. Initially, changes in splice variants of a known apoptotic regulator, MCL1 were validated. The smaller isoform of MCL1 is pro-apototic, while the longer isoform has anti-apototic functions."}, "MCL1 splice variants [2]": {"system": "MCL1 splice variants", "experiment": "Taqman qRT-PCR for MCL1 splice variants in OCI-M1 cells", "conditions": "1 μM, 6 hrs", "description": "as §2, §3"}, "EOL1 cells [3]": {"system": "EOL1 cells", "experiment": "MTT assay (number of live cells), EOL1 cells, single inhibitors and combination, Compusyn CI", "conditions": "48 hours", "protocol": "as §1\nTo further confirm the finding in MOLM16 cells, it was tested whether the combination of AZD1208 and Pladienolide B is synergistic in another AML cell line—EOL1. Different ratios between AZD1208 and Pladienolide B were tested to identify the ideal ratio that provides maximum synergy."}, "[4]": {"system": "SR protein phosphorylation", "experiment": "Western blot using phospho-SR protein antibody", "conditions": "MOLM16 and EOL1 cells, versus DMSO treated controls", "protocol": "MOLM16 and EOL1 cells were treated with AZD1208 or SRPIN340 for indicated concentration and time. Cells lysates from treated cells were used for western blot analysis.\nPhosphorylation of splicing factors is known to play a role in regulation of splicing. Phosphorylation of splicing factors called serine arginine rich proteins (SR proteins) is known to regulate their function and localization. Serine arginine rich protein kinases (SRPK1 and SRPK2) phosphorylate these proteins and inhibition of SRPK activity using the small molecule modulator SRPIN340 leads to reduction in phosphorylation. The level of SR protein phosphorylation can be visualized using phospho-SR protein antibody. It was investigated to determine if PIM kinases regulate SRPK activity to indirectly lead to changes in splicing. […] Thus, it was concluded that the SRPK activity was not affected by PIM kinase inhibition."}, "EOL1 cells [5]": {"system": "EOL1 cells", "experiment": "Microarray (Affymetrix HTA 2.0) profiling of alternative splicing changes in EOL1 cells", "protocol": "Due to the large number of splicing factors as PIM substrates, a more globally spread regulation of splicing by PIM kinases was envisioned. As such, a microarray approach was chosen to profile the entire transcriptome for changes in alternative splicing, due to inhibition of PIM kinase activity. MOLM16 cells were treated with DMSO/AZD1208 (1 μM) (pan-PIM inhibitor) for 6 hours. This experiment was performed in triplicates and RNA was run on a bioanalyzer to confirm sample intergrity, as outline in FIG. 3. A similar procedure was used for analysis of both MOLM16 and EOL1 cells. After 1 μM AZD1208 treatment for 6 hours, cells were harvested, and total RNA was isolated. The RNA quality was confirmed using a bio-analyzer. High quality RNA samples were further processed and hybridized to Affymetrix HTA 2.0 microarrays. The results obtained were processed using Affymetrix expression console and transcriptome analysis console (TAC) software. […] Similar experiment was also performed for EOL1 cells. […] Each point represents a unique probe selection region and the splicing index values for MOLM16 (X axis) and EOL1 cells (Y axis) are shown. All the points in +X+Y and −X−Y quadrants are splicing changes consistent with directionality of the change. […] Microsoft Excel functions were used to identify the overlap between these lists of splicing changes. […] When the directionality of these changes was considered, it was noted that most of these changes were also consistantly in the same direction (all but 39 out of 2599)."}, "MOLM16 cells [6]": {"system": "MOLM16 cells", "experiment": "Microarray (Affymetrix HTA 2.0) profiling of alternative splicing changes in MOLM16 cells", "conditions": "MOLM16, 1 μM, 6 hours", "protocol": "Due to the large number of splicing factors as PIM substrates, a more globally spread regulation of splicing by PIM kinases was envisioned. As such, a microarray approach was chosen to profile the entire transcriptome for changes in alternative splicing, due to inhibition of PIM kinase activity. MOLM16 cells were treated with DMSO/AZD1208 (1 μM) (pan-PIM inhibitor) for 6 hours. This experiment was performed in triplicates and RNA was run on a bioanalyzer to confirm sample intergrity, as outline in FIG. 3. A similar procedure was used for analysis of both MOLM16 and EOL1 cells. After 1 μM AZD1208 treatment for 6 hours, cells were harvested, and total RNA was isolated. The RNA quality was confirmed using a bio-analyzer. High quality RNA samples were further processed and hybridized to Affymetrix HTA 2.0 microarrays. The results obtained were processed using Affymetrix expression console and transcriptome analysis console (TAC) software. […] Similar experiment was also performed for EOL1 cells. […] Each point represents a unique probe selection region and the splicing index values for MOLM16 (X axis) and EOL1 cells (Y axis) are shown. All the points in +X+Y and −X−Y quadrants are splicing changes consistent with directionality of the change. […] Microsoft Excel functions were used to identify the overlap between these lists of splicing changes. […]"}, "MCL1 splice variants [7]": {"system": "MCL1 splice variants", "experiment": "Taqman qRT-PCR for MCL1 splice variants in MOLM16 cells", "conditions": "MOLM16, 1 μM, 6 hrs", "description": "as §2, §3"}}, "data": [{"smiles": "N[C@@H]1CCCN(c2c(/C=C3/SC(=O)NC3=O)cccc2-c2ccccc2)C1", "note": "[AZD1208, (5E)-5-[[2-[(3R)-3-aminopiperidin-1-yl]-3-phenylphenyl]methylidene]-1,3-thiazolidine-2,4-dione]", "values": [{"measurement": "Effect (fraction of cells affected, FA)", "setting": "MOLM16 cells [1]; MOLM16, SRPIN340 testing Trial 1, 0.03 μM", "result": 0.396}, {"measurement": "Effect (fraction of cells affected, FA)", "setting": "MOLM16 cells [1]; MOLM16, SRPIN340 testing Trial 1, 0.06 μM", "result": 0.521}, {"measurement": "Effect (fraction of cells affected, FA)", "setting": "MOLM16 cells [1]; MOLM16, SRPIN340 testing Trial 1, 0.12 μM", "result": 0.628}, {"measurement": "Effect (fraction of cells affected, FA)", "setting": "MOLM16 cells [1]; MOLM16, Trial 1, 0.024 μM", "result": 0.415}, {"measurement": "Effect (fraction of cells affected, FA)", "setting": "MOLM16 cells [1]; MOLM16, Trial 1, 0.048 μM", "result": 0.471}, {"measurement": "Effect (fraction of cells affected, FA)", "setting": "MOLM16 cells [1]; MOLM16, Trial 1, 0.072 μM", "result": 0.564}, {"measurement": "Effect (fraction of cells affected, FA)", "setting": "MOLM16 cells [1]; MOLM16, Trial 1, 0.096 μM", "result": 0.594}, {"measurement": "Effect (fraction of cells affected, FA)", "setting": "MOLM16 cells [1]; MOLM16, Trial 1, 0.12 μM", "result": 0.614}, {"measurement": "Effect (fraction of cells affected, FA)", "setting": "MOLM16 cells [1]; MOLM16, Trial 2, 0.024 μM", "result": 0.337}, {"measurement": "Effect (fraction of cells affected, FA)", "setting": "MOLM16 cells [1]; MOLM16, Trial 2, 0.048 μM", "result": 0.478}, {"measurement": "Effect (fraction of cells affected, FA)", "setting": "MOLM16 cells [1]; MOLM16, Trial 2, 0.072 μM", "result": 0.534}, {"measurement": "Effect (fraction of cells affected, FA)", "setting": "MOLM16 cells [1]; MOLM16, Trial 2, 0.096 μM", "result": 0.566}, {"measurement": "Effect (fraction of cells affected, FA)", "setting": "MOLM16 cells [1]; MOLM16, Trial 2, 0.12 μM", "result": 0.622}, {"measurement": "Effect (fraction of cells affected, FA)", "setting": "MOLM16 cells [1]; MOLM16, Trial 3, 0.024 μM", "result": 0.344}, {"measurement": "Effect (fraction of cells affected, FA)", "setting": "MOLM16 cells [1]; MOLM16, Trial 3, 0.048 μM", "result": 0.455}, {"measurement": "Effect (fraction of cells affected, FA)", "setting": "MOLM16 cells [1]; MOLM16, Trial 3, 0.072 μM", "result": 0.524}, {"measurement": "Effect (fraction of cells affected, FA)", "setting": "MOLM16 cells [1]; MOLM16, Trial 3, 0.096 μM", "result": 0.554}, {"measurement": "Effect (fraction of cells affected, FA)", "setting": "MOLM16 cells [1]; MOLM16, Trial 3, 0.12 μM", "result": 0.606}, {"measurement": "changes in splice variants of CHAC1, NFYA and Cog5", "setting": "CHAC1, NFYA and Cog5", "result": "in agreement with the microarray data"}, {"measurement": "level of both MCL1 splice variants", "setting": "MCL1 splice variants [2]", "result": "did not show any change"}, {"measurement": "Effect (fraction of cells affected, FA)", "setting": "EOL1 cells [3]; EOL1, Trial 1, 0.024 μM", "result": 0.395}, {"measurement": "Effect (fraction of cells affected, FA)", "setting": "EOL1 cells [3]; EOL1, Trial 1, 0.048 μM", "result": 0.529}, {"measurement": "Effect (fraction of cells affected, FA)", "setting": "EOL1 cells [3]; EOL1, Trial 1, 0.072 μM", "result": 0.675}, {"measurement": "Effect (fraction of cells affected, FA)", "setting": "EOL1 cells [3]; EOL1, Trial 1, 0.096 μM", "result": 0.684}, {"measurement": "Effect (fraction of cells affected, FA)", "setting": "EOL1 cells [3]; EOL1, Trial 1, 0.12 μM", "result": 0.680}, {"measurement": "Effect (fraction of cells affected, FA)", "setting": "EOL1 cells [3]; EOL1, Trial 2, 0.024 μM", "result": 0.432}, {"measurement": "Effect (fraction of cells affected, FA)", "setting": "EOL1 cells [3]; EOL1, Trial 2, 0.048 μM", "result": 0.587}, {"measurement": "Effect (fraction of cells affected, FA)", "setting": "EOL1 cells [3]; EOL1, Trial 2, 0.072 μM", "result": 0.650}, {"measurement": "Effect (fraction of cells affected, FA)", "setting": "EOL1 cells [3]; EOL1, Trial 2, 0.096 μM", "result": 0.683}, {"measurement": "Effect (fraction of cells affected, FA)", "setting": "EOL1 cells [3]; EOL1, Trial 2, 0.12 μM", "result": 0.698}, {"measurement": "Effect (fraction of cells affected, FA)", "setting": "EOL1 cells [3]; EOL1, Trial 3, 0.024 μM", "result": 0.373}, {"measurement": "Effect (fraction of cells affected, FA)", "setting": "EOL1 cells [3]; EOL1, Trial 3, 0.048 μM", "result": 0.523}, {"measurement": "Effect (fraction of cells affected, FA)", "setting": "EOL1 cells [3]; EOL1, Trial 3, 0.072 μM", "result": 0.600}, {"measurement": "Effect (fraction of cells affected, FA)", "setting": "EOL1 cells [3]; EOL1, Trial 3, 0.096 μM", "result": 0.633}, {"measurement": "Effect (fraction of cells affected, FA)", "setting": "EOL1 cells [3]; EOL1, Trial 3, 0.12 μM", "result": 0.642}, {"measurement": "SR protein phosphorylation", "setting": "[4]", "result": "does not change SR protein phosphorylation"}, {"measurement": "changes in splicing after PIM kinase inhibition", "setting": "EOL1 cells [5]; EOL1, 1 μM, 6 hrs.", "result": "widespread changes were observed in splicing"}, {"measurement": "overlapping splicing changes not in the same direction", "setting": "EOL1 cells [5]; out of 2599 changes shared by MOLM16 and EOL1, 1 μM, 6 hours", "result": 39}, {"measurement": "splicing changes observed in similar probe selection regions", "setting": "EOL1 cells [5]; overlap between MOLM16 and EOL1 lists, 1 μM, 6 hours", "result": 2599}, {"measurement": "gene products with changes in splicing indices", "setting": "MOLM16 cells [6]", "result": "> 5000"}, {"measurement": "splicing events with changes in splicing indices", "setting": "MOLM16 cells [6]", "result": "> 10,000"}, {"measurement": "level of shorter isoform of MCL1", "setting": "MCL1 splice variants [7]", "result": "specifically and significantly reduces"}]}]}
